Laboratory results reported in ChEMBL document CHEMBL1152652, “Bioorganic synthesis of end-capped anti-HIV peptides by simultaneous cyanocysteine-mediated cleavages of recombinant proteins” (Bioorg Med Chem, 2009).
Where a SMILES comes first, the peptide text is derived from it. The star is where a group is joined. NH(2-oxoazepan-3S-yl) = O=C1NCCCC[C@@H]1N*; Aspartimide = O=C1C[C@H](N*)C(=O)N1; X1 = N=C1N[C@H](C(=O)*)CS1

Key:
[1] = test system: Human immunodeficiency virus 1; assay: Antiviral activity against HIV1 NL4-3 infected in human HeLa cells assessed as inhibition of replication after 48 hrs by MAGI assay; type: functional, organism-based; conditions: Human immunodeficiency virus 1, NL4-3, HeLa
HeLa = assay: Cytotoxicity against human HeLa cells after 48 hrs up to 10 uM by MAGI assay; type: cell-based
Serum = assay: Metabolic stability in 50% mouse serum assessed as degradation after 24 hrs; type: ADME, cell-free

CC[C@H](C)[C@H](NC(=O)[C@H](CC(C)C)NC(=O)[C@H](CCC(=O)O)NC(=O)[C@H](CCC(=O)O)NC(=O)[C@@H](NC(=O)[C@H](CCCCN)NC(=O)[C@H](CCCCN)NC(=O)[C@@H](NC(=O)[C@H](Cc1ccc(O)cc1)NC(=O)[C@H](CCC(=O)O)NC(=O)[C@H](CCC(=O)O)NC(=O)[C@@H](NC(=O)[C@H](CCCCN)NC(=O)[C@H](CCCNC(=N)N)NC(=O)[C@H](CC(=O)O)NC(=O)[C@H](Cc1c[nH]c2ccccc12)NC(=O)[C@H](CCC(=O)O)NC(=O)[C@H](CCSC)NC(=O)[C@H](Cc1c[nH]c2ccccc12)NC(=O)[C@@H]1CSC(=N)N1)[C@@H](C)CC)[C@@H](C)O)[C@@H](C)CC)C(=O)N[C@@H](CCCCN)C(=O)N[C@@H](CCCCN)C(=O)N[C@@H](CO)C(=O)N[C@@H](CCC(N)=O)C(=O)N[C@@H](CCC(=O)O)C(=O)N[C@@H](CCC(N)=O)C(=O)N[C@@H](CCC(N)=O)C(=O)N[C@@H](CCC(=O)O)C(=O)N[C@@H](CCCCN)C(=O)N[C@@H](CC(N)=O)C(=O)N[C@@H](CCC(=O)O)C(=O)N[C@@H](CCCCN)C(=O)N[C@@H](CCC(=O)O)C(=O)N[C@@H](CC(C)C)C(=O)N[C@@H](CCCCN)C(=O)N[C@H]1CC(=O)NC1=O (X1-WMEWDRKIEEYTKKIEELIKKSQEQQEKNEKELK-Aspartimide)
EC50 [1]: 480 pM
Activity (HeLa): Non-toxic
Activity (Serum): Unstable

Ac-WMEWDRKIEEYTKKIEELIKKSQEQQEKNEKELK-NH2
EC50 [1]: 600 pM

H-WMEWDRKIEEYTKKIEELIKKSQEQQEKNEKELK-OH
EC50 [1]: 680 pM

CC[C@H](C)[C@H](NC(=O)[C@H](CC(C)C)NC(=O)[C@H](CCC(=O)O)NC(=O)[C@H](CCC(=O)O)NC(=O)[C@@H](NC(=O)[C@H](CCCCN)NC(=O)[C@H](CCCCN)NC(=O)[C@@H](NC(=O)[C@H](Cc1ccc(O)cc1)NC(=O)[C@H](CCC(=O)O)NC(=O)[C@H](CCC(=O)O)NC(=O)[C@@H](NC(=O)[C@H](CCCCN)NC(=O)[C@H](CCCNC(=N)N)NC(=O)[C@H](CC(=O)O)NC(=O)[C@H](Cc1c[nH]c2ccccc12)NC(=O)[C@H](CCC(=O)O)NC(=O)[C@H](CCSC)NC(=O)[C@H](Cc1c[nH]c2ccccc12)NC(=O)[C@@H]1CSC(=N)N1)[C@@H](C)CC)[C@@H](C)O)[C@@H](C)CC)C(=O)N[C@@H](CCCCN)C(=O)N[C@@H](CCCCN)C(=O)N[C@@H](CO)C(=O)N[C@@H](CCC(N)=O)C(=O)N[C@@H](CCC(=O)O)C(=O)N[C@@H](CCC(N)=O)C(=O)N[C@@H](CCC(N)=O)C(=O)N[C@@H](CCC(=O)O)C(=O)N[C@@H](CCCCN)C(=O)N[C@@H](CC(N)=O)C(=O)N[C@@H](CCC(=O)O)C(=O)N[C@@H](CCCCN)C(=O)N[C@@H](CCC(=O)O)C(=O)N[C@@H](CC(C)C)C(=O)N[C@@H](CCCCN)C(=O)N[C@H]1CCCCNC1=O (X1-WMEWDRKIEEYTKKIEELIKKSQEQQEKNEKELK-{NH(2-oxoazepan-3S-yl)})
EC50 [1]: 580 pM
Activity (HeLa): Non-toxic
Activity (Serum): Stable
